target: T1, AAT (Homo sapiens, UniProt P01009, E366K); assay: Compound Quality score (potency in AAT functional assay multiplied by unbound clearance); conditions: compound potency (EC50) x unbound clearance; class symbols
T1 construct: expressed in transfected cells; host or cells: NL20 human bronchial epithelial cells (NL20-SI cell line), with doxycycline added alongside the compounds
Description: As used herein, the term “Compound Quality” refers to the potency of a compound multiplied (x) by the compound's unbound clearance as measured using the assays described in Example 6.
The terms “unbound clearance” refer to unbound intrinsic clearance (unbound CLint) in hepatocytes—the intrinsic clearance a drug would have in the absence of protein binding. Unbound CLint=CLint,hep/fu,hep, where CLint,hep is intrinsic clearance in hepatocytes and fu,hep is unbound fraction in hepatocytes.
A key consideration for the selection of compounds suitable for clinical development is the projection of human dose as described in Equations 1-3. Two key parameters that comprise the dose equation are the unbound clearance of a compound and the plasma efficacious exposure (also referred to herein as compound potency). Together these parameters are known to one skilled in the art as a measurement of Compound Quality and suitability for advancement into clinical development. Thus, when evaluating AAT modulator compounds, one needs to consider both the potency and unbound clearance parameters (i.e., Compound Quality). The relationship between these two parameters can be challenging to predict.
The values provided in the table below are calculated by multiplying the EC50 of each of the compounds by the result from the clearance assay procedures described in Section C above and rounded to two significant figures. In the table below, the following meanings apply for Compound Quality (i.e., compound potency x unbound clearance) values: “++++” means ≤0.2; “+++” means >0.20 and ≤0.30; “++” means >0.30 and ≤0.40; “+” means >0.40 and ≤0.50.

T1 sequence (P01009 25-418 E366K): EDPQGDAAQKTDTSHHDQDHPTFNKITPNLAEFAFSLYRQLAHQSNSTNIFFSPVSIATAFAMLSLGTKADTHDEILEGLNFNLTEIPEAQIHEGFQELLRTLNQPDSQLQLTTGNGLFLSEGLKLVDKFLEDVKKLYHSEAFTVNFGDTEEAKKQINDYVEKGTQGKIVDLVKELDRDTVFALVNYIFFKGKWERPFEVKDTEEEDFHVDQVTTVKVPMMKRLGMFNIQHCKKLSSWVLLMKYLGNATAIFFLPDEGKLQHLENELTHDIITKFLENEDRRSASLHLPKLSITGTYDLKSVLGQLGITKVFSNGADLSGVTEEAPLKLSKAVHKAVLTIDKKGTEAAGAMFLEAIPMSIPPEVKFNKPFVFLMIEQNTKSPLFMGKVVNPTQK

Row | SMILES | Compound Quality
1 | CCOCC(O)(CC)c1c(-c2ccc(C(=O)O)cc2)c2c(F)c3[nH]ncc3cc2n1-c1ccc(F)c(F)c1 (stereo not drawn) [Compound 11] | +++ (“+++” means >0.20 and ≤0.30)
2 | [2H]C([2H])([2H])C([2H])([2H])C(O)(COC)c1c(-c2ccc(C(=O)O)cc2)c2c(F)c3[nH]ncc3cc2n1-c1ccc(F)c(F)c1 (stereo not drawn) [Compound 34] | ++++ (“++++” means ≤0.2)
3 | CCc1cc(-c2c(C(O)(CC)COC)n(-c3ccc(F)c(OC)c3)c3cc4cn[nH]c4c(F)c23)ccc1C(=O)O (stereo not drawn) [Compound 49] | ++ (“++” means >0.30 and ≤0.40)
4 | [2H]C([2H])([2H])Oc1cc(-n2c(C(O)(CC)COC)c(-c3ccc(C(=O)O)c(CC)c3)c3c(F)c4[nH]ncc4cc32)ccc1F (stereo not drawn) [Compound 65] | + (“+” means >0.40 and ≤0.50)
5 | CC[C@](O)(COC)c1c(-c2ccc(C(=O)O)cc2)c2c(F)c3[nH]ncc3cc2n1-c1ccc(F)c(OC)c1 [Compound 8] | + (“+” means >0.40 and ≤0.50)
6 | COc1cc(-n2c(C3(O)CCCC[C@@H]3OC)c(-c3ccc(C(=O)O)c(C)c3)c3c(F)c4[nH]ncc4cc32)ccc1F (stereo partly drawn) [Compound 55] | ++ (“++” means >0.30 and ≤0.40)
7 | CCOC1CCCC1(O)c1c(-c2ccc(C(=O)O)cc2)c2c(F)c3[nH]ncc3cc2n1-c1ccc(F)c(OC)c1 (stereo not drawn) [Compound 58] | + (“+” means >0.40 and ≤0.50)
8 | CCC(O)(COC)c1c(-c2ccc(C(=O)O)cc2F)c2c(F)c3[nH]ncc3cc2n1-c1ccc(F)c(C)c1 (stereo not drawn) [Compound 63] | + (“+” means >0.40 and ≤0.50)
9 | CO[C@H]1CCCCC1(O)c1c(-c2ccc(C(=O)O)cc2)c2c(F)c3[nH]ncc3cc2n1-c1cc(F)c(F)cc1F (stereo partly drawn) [Compound 61] | +++ (“+++” means >0.20 and ≤0.30)
10 | CCC(O)(COC)c1c(-c2ccc(C(=O)O)c(C)c2)c2c(F)c3[nH]ncc3cc2n1-c1cccc(F)c1 (stereo not drawn) [Compound 44] | + (“+” means >0.40 and ≤0.50)
11 | [2H]C([2H])([2H])OCC(O)(CC)c1c(-c2ccc(C(=O)O)cc2)c2c(F)c3[nH]ncc3cc2n1-c1ccc(F)c(OC([2H])([2H])[2H])c1 (stereo not drawn) [Compound 45] | +++ (“+++” means >0.20 and ≤0.30)
12 | CCC(O)(CCOC)c1c(-c2ccc(C(=O)O)cc2)c2c(F)c3[nH]ncc3cc2n1-c1ccc(F)cc1 (stereo not drawn) [Compound 41] | + (“+” means >0.40 and ≤0.50)
13 | [2H]C1([2H])C([2H])([2H])C([2H])([2H])[C@](O)(c2c(-c3ccc(C(=O)O)cc3)c3c(F)c4[nH]ncc4cc3n2-c2ccc(F)c(OC)c2)[C@@]([2H])(OC)C1([2H])[2H] [Compound 30] | ++++ (“++++” means ≤0.2)
14 | CCC(O)(COC(C)C)c1c(-c2ccc(C(=O)O)cc2)c2c(F)c3[nH]ncc3cc2n1-c1ccc(F)c(OC)c1 (stereo not drawn) [Compound 13] | +++ (“+++” means >0.20 and ≤0.30)
15 | [2H]C([2H])([2H])OCC(O)(CC)c1c(-c2ccc(C(=O)O)cc2)c2c(F)c3[nH]ncc3cc2n1-c1ccc(F)c(OC)c1 (stereo not drawn) [Compound 53] | ++ (“++” means >0.30 and ≤0.40)
16 | CCC(O)(COC)c1c(-c2ccc(C(=O)O)c(C)c2)c2c(F)c3[nH]ncc3cc2n1-c1ccc(F)c(Cl)c1 (stereo not drawn) [Compound 36] | +++ (“+++” means >0.20 and ≤0.30)
17 | [2H]C([2H])([2H])Oc1cc(-n2c(C(O)(COC)C([2H])([2H])C([2H])([2H])[2H])c(-c3ccc(C(=O)O)cc3)c3c(F)c4[nH]ncc4cc32)ccc1F (stereo not drawn) [Compound 46] | +++ (“+++” means >0.20 and ≤0.30)
18 | CC[C@@](O)(COC)c1c(-c2ccc(C(=O)O)cc2)c2c(F)c3[nH]ncc3cc2n1-c1cc(C)c(F)c(F)c1 [Compound 42] | ++ (“++” means >0.30 and ≤0.40)
19 | CCc1cc(-c2c(C(O)(CC)COC)n(-c3ccc(F)c(F)c3)c3cc4cn[nH]c4c(F)c23)ccc1C(=O)O (stereo not drawn) [Compound 48] | + (“+” means >0.40 and ≤0.50)
20 | COC1CCCC1(O)c1c(-c2ccc(C(=O)O)cc2)c2c(F)c3[nH]ncc3cc2n1-c1ccc(F)c(C)c1 (stereo not drawn) [Compound 43] | + (“+” means >0.40 and ≤0.50)
21 | COc1cc(-n2c(C3(O)CCCCC3OC)c(-c3ccc(C(=O)O)cc3)c3c(F)c4[nH]ncc4cc32)ccc1F (stereo not drawn) [Compound 24] | +++ (“+++” means >0.20 and ≤0.30)
22 | COC1CCCC1(O)c1c(-c2ccc(C(=O)O)cc2)c2c(F)c3[nH]ncc3cc2n1-c1ccc(F)cc1 (stereo not drawn) [Compound 27] | ++ (“++” means >0.30 and ≤0.40)
23 | COC1CCCCC1(O)c1c(-c2ccc(C(=O)O)cc2)c2c(F)c3[nH]ncc3cc2n1-c1ccc(F)cc1 (stereo not drawn) [Compound 26] | ++++ (“++++” means ≤0.2)

Row | SMILES | Compound Quality
24 | COC1COCCC1(O)c1c(-c2ccc(C(=O)O)cc2)c2c(F)c3[nH]ncc3cc2n1-c1ccc(F)c(C)c1 (stereo not drawn) [Compound 59] | ++ (“++” means >0.30 and ≤0.40)
25 | [2H]C([2H])([2H])C([2H])([2H])C(O)(COC)c1c(-c2ccc(C(=O)O)cc2)c2c(F)c3[nH]ncc3cc2n1-c1ccc(F)c(F)c1 (stereo not drawn) [Compound 21] | ++ (“++” means >0.30 and ≤0.40)
26 | CCC(O)(COC)c1c(-c2ccc(C(=O)O)c(C)c2)c2c(F)c3[nH]ncc3cc2n1-c1ccc(F)c(F)c1 (stereo not drawn) [Compound 39] | +++ (“+++” means >0.20 and ≤0.30)
27 | COC1CCCCC1(O)c1c(-c2ccc(C(=O)O)cc2)c2c(F)c3[nH]ncc3cc2n1-c1cccc(F)c1 (stereo not drawn) [Compound 25] | +++ (“+++” means >0.20 and ≤0.30)
28 | CO[C@H]1CCCCC1(O)c1c(-c2ccc(C(=O)O)c(C)c2)c2c(F)c3[nH]ncc3cc2n1-c1ccc(F)cc1 (stereo partly drawn) [Compound 56] | +++ (“+++” means >0.20 and ≤0.30)
29 | [2H]C([2H])([2H])Oc1cc(-n2c([C@@]3(O)C([2H])([2H])C([2H])([2H])C([2H])([2H])C([2H])([2H])[C@]3([2H])OC)c(-c3ccc(C(=O)O)cc3)c3c(F)c4[nH]ncc4cc32)ccc1F [Compound 31] | ++ (“++” means >0.30 and ≤0.40)
30 | [2H]C([2H])([2H])C([2H])([2H])C(O)(COC)c1c(-c2ccc(C(=O)O)cc2)c2c(F)c3[nH]ncc3cc2n1-c1ccc(F)cc1 (stereo not drawn) [Compound 18] | +++ (“+++” means >0.20 and ≤0.30)
31 | [2H]C([2H])([2H])Oc1cc(-n2c(C(O)(CC)COC)c(-c3ccc(C(=O)O)c(C)c3)c3c(F)c4[nH]ncc4cc32)ccc1F (stereo not drawn) [Compound 50] | ++ (“++” means >0.30 and ≤0.40)
32 | [2H]C([2H])([2H])Oc1cc(-n2c(C3(O)C([2H])([2H])C([2H])([2H])C([2H])([2H])C([2H])([2H])C3([2H])OC([2H])([2H])[2H])c(-c3ccc(C(=O)O)cc3)c3c(F)c4[nH]ncc4cc32)ccc1F (stereo not drawn) [Compound 32] | +++ (“+++” means >0.20 and ≤0.30)
33 | CC[C@](O)(COC)c1c(-c2ccc(C(=O)O)cc2)c2c(F)c3[nH]ncc3cc2n1-c1ccc(F)c(F)c1 [Compound 6] | ++ (“++” means >0.30 and ≤0.40)
34 | [2H]C([2H])([2H])OCC(O)(CC)c1c(-c2ccc(C(=O)O)cc2)c2c(F)c3[nH]ncc3cc2n1-c1ccc(F)c(F)c1 (stereo not drawn) [Compound 33] | +++ (“+++” means >0.20 and ≤0.30)
35 | COC1CCCC1(O)c1c(-c2ccc(C(=O)O)cc2)c2c(F)c3[nH]ncc3cc2n1-c1ccc(F)c(F)c1 (stereo not drawn) [Compound 28] | +++ (“+++” means >0.20 and ≤0.30)
36 | [2H]C([2H])([2H])Oc1cc(-n2c([C@@](O)(CC)COC)c(-c3ccc(C(=O)O)cc3)c3c(F)c4[nH]ncc4cc32)ccc1F [Compound 10] | ++ (“++” means >0.30 and ≤0.40)
37 | CCOCC(O)(CC)c1c(-c2ccc(C(=O)O)cc2)c2c(F)c3[nH]ncc3cc2n1-c1cccc2cnn(C)c12 (stereo not drawn) [Compound 64] | ++ (“++” means >0.30 and ≤0.40)
38 | [2H]C([2H])([2H])Oc1cc(-n2c(C3(O)CCCC[C@@H]3OC)c(-c3ccc(C(=O)O)cc3)c3c(F)c4[nH]ncc4cc32)ccc1F (stereo partly drawn) [Compound 51] | ++ (“++” means >0.30 and ≤0.40)
39 | COC1CCCCC1(O)c1c(-c2ccc(C(=O)O)cc2)c2c(F)c3[nH]ncc3cc2n1-c1ccc(F)c(F)c1 (stereo not drawn) [Compound 23] | +++ (“+++” means >0.20 and ≤0.30)
40 | CCC(O)(COC)c1c(-c2ccc(C(=O)O)c(C)c2)c2c(F)c3[nH]ncc3cc2n1-c1ccc(F)c(OC)c1 (stereo not drawn) [Compound 40] | +++ (“+++” means >0.20 and ≤0.30)
41 | [2H]C([2H])([2H])C([2H])([2H])C(O)(COC)c1c(-c2ccc(C(=O)O)cc2)c2c(F)c3[nH]ncc3cc2n1-c1ccc(F)c(OC)c1 (stereo not drawn) [Compound 20] | ++ (“++” means >0.30 and ≤0.40)
42 | [2H]C([2H])([2H])C([2H])([2H])C(O)(COC)c1c(-c2ccc(C(=O)O)cc2)c2c(F)c3[nH]ncc3cc2n1-c1ccc(F)cc1 (stereo not drawn) [Compound 37] | +++ (“+++” means >0.20 and ≤0.30)
43 | [2H]C([2H])([2H])C([2H])([2H])C(O)(COC)c1c(-c2ccc(C(=O)O)cc2)c2c(F)c3[nH]ncc3cc2n1-c1ccc(F)c(OC)c1 (stereo not drawn) [Compound 47] | +++ (“+++” means >0.20 and ≤0.30)
44 | CO[C@H]1CCCCC1(O)c1c(-c2ccc(C(=O)O)cc2)c2c(F)c3[nH]ncc3cc2n1-c1ccc(F)c(F)c1F (stereo partly drawn) [Compound 60] | +++ (“+++” means >0.20 and ≤0.30)
45 | CC[C@@](O)(COC)c1c(-c2ccc(C(=O)O)cc2)c2c(F)c3[nH]ncc3cc2n1-c1cccc(F)c1 [Compound 15] | ++ (“++” means >0.30 and ≤0.40)

Reference: patent US20240158404A1, “MODULATORS OF ALPHA-1 ANTITRYPSIN” (Vertex Pharmaceuticals Incorporated, priority 2022, published 2024)
